Laboratory results reported in US20240165047A1, “Use Of Honokiol In Preparation Of Drug For Treating Meningioma” (Chengdu Jinrui Foundation Biotech Co., Ltd., priority 2021, published 2024).

Columns and labels:
[1] = Phase I clinical trial of clinical safety and tolerance of honokiol liposome for injection, safety analysis set (patients with advanced malignant solid tumors); assay type: in vivo, human; settings: summary statement of the clinical trials
From the text: (§1) Description of the Subject: • person; • on Jan. […] 27, 2018, the subject underwent the resection of a deep skull bottom lesion, endothelial meningoma, and local lesion being hemangioma-type meningoma, accompanied by bleeding, showing the non-typical meningioma, infiltrating bone tissue, comprehensive to malignant meningoma; immunohistochemistry: EMA (positive), PR (scattered in a little positive), SSTR (focal positive), CD34 (blood vessel positive), CD99 (+), S100 (-), Syn (-), CgA (-), CK (occasionally positive), Ki67 (about 8-20%); • in February 2019, the subject was treated for intracranial infection; • in June 2019, the subject received whole brain radiotherapy; • on Mar. 5, 2021, the subject re-examined the cranial MR and the tumor recurred; in order to further treat, at the outpatient of Beijing […] […]

[2] = test system: meningioma; assay: Phase I clinical trial of honokiol liposome for injection: cranial MR re-examination of meningioma patients, RANO standard; assay type: in vivo, human; settings: summary statement of the clinical trials
From the text: as §1

SMILES: C=CCc1ccc(O)c(-c2ccc(O)c(CC=C)c2)c1 [honokiol, 3′,5-di-2-propenyl-1,1′-biphenyl-2,4′-diphenol]
- overall safety and tolerance in clinical trials [1]: good safety and tolerance
- overall efficacy against meningioma in clinical trials [2]: effectively treat the meningioma
